Measured values reported in PubChem BioAssay AID1963964 (Molecular Pharmacology Branch, DTP, NCI, 2024).
pIC50: −log10 of the molar value. Values belong to the molecule of their own block, whether it stands above or below them.

System: 997726-040-R-J2-PDC tumor spheroids, viability
Assay: Anticancer human tumor 997726-040-R-J2-PDC patient-derived squamous cell lung carcinoma cell line growth inhibition [PI3K]
Conditions: spheroids with HUVEC and MSC; for pIC50: curve of first compound; for viability, T/C: stronger effect = lower value
Summary of the method: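 Multi-cell spheroids combine tumor cells with HUVEC and human MSCs, treated with targeted agents alone or with inavolisib, alpelisib, duvelisib or copanlisib. Concentrations fall in half-log steps from at or near clinical Cmax, or from 10 microM where Cmax is unknown; viability read-out.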

[1] = second compound 0.0316 µM, first compound 0.0316 µM
[2] = second compound 0.0316 µM, first compound 0.1 µM
[3] = second compound 0.0316 µM, first compound 0.316 µM
[4] = second compound 0.0316 µM, first compound 1 µM
[5] = second compound 0.0316 µM, first compound 3.16 µM
[6] = second compound 0.0316 µM, first compound 10 µM
[7] = second compound 0.1 µM, first compound 0.0316 µM
[8] = second compound 0.1 µM, first compound 0.1 µM
[9] = second compound 0.1 µM, first compound 0.316 µM
[10] = second compound 0.1 µM, first compound 1 µM
[11] = second compound 0.1 µM, first compound 3.16 µM
[12] = second compound 0.1 µM, first compound 10 µM
[13] = second compound 0.316 µM, first compound 0.0316 µM
[14] = second compound 0.316 µM, first compound 0.1 µM
[15] = second compound 0.316 µM, first compound 0.316 µM
[16] = second compound 0.316 µM, first compound 1 µM
[17] = second compound 0.316 µM, first compound 3.16 µM
[18] = second compound 0.316 µM, first compound 10 µM
[19] = second compound 1 µM, first compound 0.0316 µM
[20] = second compound 1 µM, first compound 0.1 µM
[21] = second compound 1 µM, first compound 0.316 µM
[22] = second compound 1 µM, first compound 1 µM
[23] = second compound 1 µM, first compound 3.16 µM
[24] = second compound 1 µM, first compound 10 µM
[25] = second compound 3.16 µM, first compound 0.0316 µM
[26] = second compound 3.16 µM, first compound 0.1 µM
[27] = second compound 3.16 µM, first compound 0.316 µM
[28] = second compound 3.16 µM, first compound 1 µM
[29] = second compound 3.16 µM, first compound 3.16 µM
[30] = second compound 3.16 µM, first compound 10 µM
[31] = second compound 10 µM, first compound 0.0316 µM
[32] = second compound 10 µM, first compound 0.1 µM
[33] = second compound 10 µM, first compound 0.316 µM
[34] = second compound 10 µM, first compound 1 µM
[35] = second compound 10 µM, first compound 3.16 µM
[36] = second compound 10 µM, first compound 10 µM
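Note: spheroids exposed to compounds for seven days before readout.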

SMILES: C#Cc1c(F)ccc2cc(O)cc(-c3ncc4c(N5CC6CCC(C5)N6)nc(OCC56CCCN5CC(F)C6)nc4c3F)c12 (stereo not given) + Cc1nc(NC(=O)N2CCCC2C(N)=O)sc1-c1ccnc(C(C)(C)C(F)(F)F)c1
pIC50 (second compound 0.0316 µM): < 5.00
pIC50 (second compound 0.1 µM): < 5.00
pIC50 (second compound 0.316 µM): 6.66
pIC50 (second compound 1 µM): > 7.50
pIC50 (second compound 3.16 µM): > 7.50
pIC50 (second compound 10 µM): > 7.50
viability, T/C [1]: 89.9%
viability, T/C [2]: 88.9%
viability, T/C [3]: 84%
viability, T/C [4]: 81.3%
viability, T/C [5]: 77.9%
viability, T/C [6]: 75.5%
viability, T/C [7]: 77.4%
viability, T/C [8]: 71.4%
viability, T/C [9]: 74.6%
viability, T/C [10]: 79.8%
viability, T/C [11]: 60.9%
viability, T/C [12]: 55%
viability, T/C [13]: 59.6%
viability, T/C [14]: 51.2%
viability, T/C [15]: 51%
viability, T/C [16]: 44.3%
viability, T/C [17]: 42.9%
viability, T/C [18]: 41.9%
viability, T/C [19]: 41.4%
viability, T/C [20]: 39.5%
viability, T/C [21]: 41.7%
viability, T/C [22]: 40.3%
viability, T/C [23]: 40.3%
viability, T/C [24]: 30%
viability, T/C [25]: 30.8%
viability, T/C [26]: 27.2%
viability, T/C [27]: 31.2%
viability, T/C [28]: 28.5%
viability, T/C [29]: 30.5%
viability, T/C [30]: 21.9%
viability, T/C [31]: 15.8%
viability, T/C [32]: 17.6%
viability, T/C [33]: 13.4%
viability, T/C [34]: 17.6%
viability, T/C [35]: 14.1%
viability, T/C [36]: 15.8%

SMILES: C=CC(=O)N1CCN(c2nc(=O)n(-c3c(C)ccnc3C(C)C)c3nc(-c4c(O)cccc4F)c(F)cc23)C(C)C1 (stereo not given) + Cc1nc(NC(=O)N2CCCC2C(N)=O)sc1-c1ccnc(C(C)(C)C(F)(F)F)c1
pIC50 (second compound 0.0316 µM): < 5.00
pIC50 (second compound 0.1 µM): < 5.00
pIC50 (second compound 0.316 µM): < 5.00
pIC50 (second compound 1 µM): > 7.50
pIC50 (second compound 3.16 µM): > 7.50
pIC50 (second compound 10 µM): > 7.50
viability, T/C [1]: 82.8%
viability, T/C [2]: 84.3%
viability, T/C [3]: 101%
viability, T/C [4]: 108%
viability, T/C [5]: 102%
viability, T/C [6]: 109%
viability, T/C [7]: 76.3%
viability, T/C [8]: 72.7%
viability, T/C [9]: 71.1%
viability, T/C [10]: 86.8%
viability, T/C [11]: 101%
viability, T/C [12]: 89.3%
viability, T/C [13]: 53.3%
viability, T/C [14]: 55.9%
viability, T/C [15]: 61%
viability, T/C [16]: 59.5%
viability, T/C [17]: 63.6%
viability, T/C [18]: 65.6%
viability, T/C [19]: 40.8%
viability, T/C [20]: 41.8%
viability, T/C [21]: 45%
viability, T/C [22]: 39.8%
viability, T/C [23]: 52%
viability, T/C [24]: 46.2%
viability, T/C [25]: 30.9%
viability, T/C [26]: 28.6%
viability, T/C [27]: 33.6%
viability, T/C [28]: 28.6%
viability, T/C [29]: 34.1%
viability, T/C [30]: 32.2%
viability, T/C [31]: 16.2%
viability, T/C [32]: 16%
viability, T/C [33]: 15.9%
viability, T/C [34]: 17.4%
viability, T/C [35]: 22%
viability, T/C [36]: 9.67%

SMILES: Cn1ncc(Cl)c1-c1cc(C(=O)NC(CN)Cc2cccc(F)c2)sc1Cl (stereo not given) + Cc1nc(NC(=O)N2CCCC2C(N)=O)sc1-c1ccnc(C(C)(C)C(F)(F)F)c1
pIC50 (second compound 0.0316 µM): 7.01
pIC50 (second compound 0.1 µM): 7.11
pIC50 (second compound 0.316 µM): 7.49
pIC50 (second compound 1 µM): > 7.50
pIC50 (second compound 3.16 µM): > 7.50
pIC50 (second compound 10 µM): > 7.50
viability, T/C [1]: 68%
viability, T/C [2]: 49.7%
viability, T/C [3]: 23.7%
viability, T/C [4]: 11.6%
viability, T/C [5]: 9.66%
viability, T/C [6]: 5.52%
viability, T/C [7]: 65.4%
viability, T/C [8]: 45.7%
viability, T/C [9]: 25%
viability, T/C [10]: 13%
viability, T/C [11]: 9.73%
viability, T/C [12]: 6.2%
viability, T/C [13]: 50%
viability, T/C [14]: 37.7%
viability, T/C [15]: 22.5%
viability, T/C [16]: 11.7%
viability, T/C [17]: 9.53%
viability, T/C [18]: 3.13%
viability, T/C [19]: 39.9%
viability, T/C [20]: 35.2%
viability, T/C [21]: 21.6%
viability, T/C [22]: 11.3%
viability, T/C [23]: 8.3%
viability, T/C [24]: 2.53%
viability, T/C [25]: 25.3%
viability, T/C [26]: 22.5%
viability, T/C [27]: 13.9%
viability, T/C [28]: 10%
viability, T/C [29]: 6.18%
viability, T/C [30]: 1.9%
viability, T/C [31]: 15%
viability, T/C [32]: 11.3%
viability, T/C [33]: 7.08%
viability, T/C [34]: 4.6%
viability, T/C [35]: 3.71%
viability, T/C [36]: 1.05%

Further lines, with some results ahead:

pIC50 (second compound 0.0316 µM): < 5.00
pIC50 (second compound 0.1 µM): < 5.00
pIC50 (second compound 0.316 µM): < 5.00
pIC50 (second compound 1 µM): > 7.50
pIC50 (second compound 3.16 µM): > 7.50
pIC50 (second compound 10 µM): > 7.50
SMILES: CC(Cn1ccc(-c2ccc(C#N)c(Cl)c2)n1)NC(=O)c1cc(C(C)O)[nH]n1 (stereo not given) + Cc1nc(NC(=O)N2CCCC2C(N)=O)sc1-c1ccnc(C(C)(C)C(F)(F)F)c1
viability, T/C [1]: 88.7%
viability, T/C [2]: 92.7%
viability, T/C [3]: 90.5%
viability, T/C [4]: 95.7%
viability, T/C [5]: 86.2%
viability, T/C [6]: 86%
viability, T/C [7]: 76%
viability, T/C [8]: 74.3%
viability, T/C [9]: 80.2%
viability, T/C [10]: 74.3%
viability, T/C [11]: 78.9%
viability, T/C [12]: 72.1%
viability, T/C [13]: 62.5%
viability, T/C [14]: 53.5%
viability, T/C [15]: 59.5%
viability, T/C [16]: 57.5%
viability, T/C [17]: 58.9%
viability, T/C [18]: 54%
viability, T/C [19]: 45%
viability, T/C [20]: 44.7%
viability, T/C [21]: 47.3%
viability, T/C [22]: 39.8%
viability, T/C [23]: 43.1%
viability, T/C [24]: 41.8%
viability, T/C [25]: 29.4%
viability, T/C [26]: 27.1%
viability, T/C [27]: 32%
viability, T/C [28]: 33.4%
viability, T/C [29]: 30.6%
viability, T/C [30]: 26.7%
viability, T/C [31]: 15.4%
viability, T/C [32]: 14.6%
viability, T/C [33]: 16.2%
viability, T/C [34]: 15.1%
viability, T/C [35]: 14.4%
viability, T/C [36]: 9.85%

pIC50 (second compound 0.0316 µM): 5.20
pIC50 (second compound 0.1 µM): 6.51
pIC50 (second compound 0.316 µM): 7.22
pIC50 (second compound 1 µM): > 7.50
pIC50 (second compound 3.16 µM): > 7.50
pIC50 (second compound 10 µM): > 7.50
SMILES: Cn1nccc1Nc1nccc(-c2ccn(C(CO)c3ccc(Cl)c(F)c3)c(=O)c2)n1 (stereo not given) + Cc1nc(NC(=O)N2CCCC2C(N)=O)sc1-c1ccnc(C(C)(C)C(F)(F)F)c1
viability, T/C [1]: 72.8%
viability, T/C [2]: 72.3%
viability, T/C [3]: 63.3%
viability, T/C [4]: 65.4%
viability, T/C [5]: 55%
viability, T/C [6]: 46.1%
viability, T/C [7]: 64.7%
viability, T/C [8]: 75.7%
viability, T/C [9]: 48.3%
viability, T/C [10]: 52%
viability, T/C [11]: 49.3%
viability, T/C [12]: 48.1%
viability, T/C [13]: 55.4%
viability, T/C [14]: 44.4%
viability, T/C [15]: 43%
viability, T/C [16]: 34.9%
viability, T/C [17]: 38.7%
viability, T/C [18]: 33%
viability, T/C [19]: 41.9%
viability, T/C [20]: 36.8%
viability, T/C [21]: 32.7%
viability, T/C [22]: 30.2%
viability, T/C [23]: 28%
viability, T/C [24]: 23.3%
viability, T/C [25]: 29.8%
viability, T/C [26]: 27.7%
viability, T/C [27]: 23.2%
viability, T/C [28]: 28.3%
viability, T/C [29]: 27%
viability, T/C [30]: 16.1%
viability, T/C [31]: 17.1%
viability, T/C [32]: 12.8%
viability, T/C [33]: 15.8%
viability, T/C [34]: 14.3%
viability, T/C [35]: 17.2%
viability, T/C [36]: 7.87%
